Laboratory results from PubChem BioAssay (NCI).
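Following 48 hours of exposure in 96-well plates, responses at five concentrations were used to interpolate endpoints linearly. TGI: concentration producing complete growth inhibition.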

Columns and labels:
Test in all cases: inhibition of tumour cell growth, NCI panel, 48 h
[1] = tested on: CCRF-CEM leukemia
[2] = tested on: SK-MEL-2 melanoma
[3] = tested on: TK-10 renal
[4] = tested on: 786-0 renal
[5] = tested on: SF-268 CNS
[6] = tested on: HOP-92 NSCLC
[7] = tested on: SNB-19 CNS
[8] = tested on: SK-MEL-28 melanoma
[9] = tested on: ACHN renal
[10] = tested on: UO-31 renal
[11] = tested on: COLO 205 colon
[12] = tested on: SN12C renal
[13] = tested on: SF-295 CNS
[14] = tested on: SW-620 colon
[15] = tested on: M19-MEL melanoma
[16] = tested on: XF 498 CNS
[17] = tested on: MOLT-4 leukemia
[18] = tested on: NCI-H460 lung
[19] = tested on: KM12 colon
[20] = tested on: HL-60(TB) leukemia
[21] = tested on: HCC-2998 colon
[22] = tested on: HOP-18 NSCLC
[23] = tested on: M14 melanoma
[24] = tested on: RPMI-8226 leukemia
[25] = tested on: KM20L2 colon
[26] = tested on: UACC-257 melanoma
[27] = tested on: OVCAR-4 ovarian
[28] = tested on: OVCAR-5 ovarian
[29] = tested on: U251 CNS
[30] = tested on: NCI-H23 lung
[31] = tested on: NCI-H522 lung
[32] = tested on: IGROV1 ovarian
[33] = tested on: LOX IMVI melanoma
[34] = tested on: K-562 leukemia
[35] = tested on: SNB-75 CNS
[36] = tested on: SNB-78 CNS
[37] = tested on: A498 renal
[38] = tested on: RXF 393 renal
[39] = tested on: SF-539 CNS
[40] = tested on: A549 NSCLC
[41] = tested on: SK-MEL-5 melanoma
[42] = tested on: LXFL 529 NSCLC
[43] = tested on: EKVX NSCLC
[44] = tested on: UACC-62 melanoma
[45] = tested on: OVCAR-8 ovarian
[46] = tested on: SK-OV-3 ovarian
[47] = tested on: HCT-116 colon
[48] = tested on: HOP-62 NSCLC
[49] = tested on: DLD-1 colon
[50] = tested on: CAKI-1 renal
[51] = tested on: DMS 114 small cell lung
[52] = tested on: HCT-15 colon
[53] = tested on: MALME-3M melanoma
[54] = tested on: HT29 colon
[55] = tested on: DMS 273 small cell lung
[56] = tested on: OVCAR-3 ovarian
[57] = tested on: NCI-H226 lung
[58] = tested on: SR leukemia
[59] = tested on: RXF-631 renal

Measured: TGI

N/N=C1/C(=O)N(c2ccc(Cl)cc2)C(=O)C(=O)C1c1nc2ccccc2s1 (stereo unspecified)
not listed: [57] | [58] | [59]
> 100 µM: all other assays above

CC(=O)OC1COC(N2C(=O)C(=O)c3ccccc32)C(OC(C)=O)C1OC(C)=O (stereo unspecified)
not listed: [16] | [20] | [22] | [28] | [47]
> 100 µM: all other assays above

CC(C)(c1ccc(C=O)o1)c1ccc(C(C)(C)c2ccc(C=O)o2)o1
not listed: [10] | [12] | [15] | [16] | [23] | [24] | [35] | [41] | [44] | [49] | [51] | [52] | [56]
> 100 µM: all other assays above

CC1=Nc2ccccc2S/C1=C1/C=NC(=NC#N)N=C1C(=O)Nc1cccc(Cl)c1
not listed: [6] | [16] | [20] | [59]
> 100 µM: all other assays above
